Counter-ions that a name gives are not always drawn. Like-named read-outs stand apart in the source and are kept apart here.
Legend:
[1] = target: T1, factor Xa (Homo sapiens, UniProt P00742); details: cited from earlier work
[2] = recombinantly-produced inhibitor; cited from earlier work
[3] = TAP at less than about two fold aPTT prolongation; heparin at doses causing five fold aPTT increase; cited from earlier work
[4] = target: T1, factor Xa; assay: In vitro Factor Xa assay (Test 1a), chromogenic substrate S-2765; type: biochemical; design: purchased Enzyme Research Laboratories, Inc; South Bend, Ind; details: Factor Xa inhibitory activity; Ki from IC50 corrected for substrate competition; 25° C., pH 7.8; read-out: Ki (FXa)
Method: Purified enzymes are used in chromogenic assays. To determine the inhibition constant, the IC50 value is corrected for competition with substrate using the formula: […] where Km is the Michaelis-Menten-constant (Y.-C. Chen and W. H. Prusoff, Biochem. Pharmacol. 22: […] (1973), which is incorporated herein by reference). TBS-PEG buffer (50 mM Tris-Cl, pH 7.8, 200 mM NaCl, 0.05% (w/v) PEG-8000, 0.02% (w/v) NaN3) is used for this assay. The IC50 is determined by combining in appropriate wells of a Costar half-area microtiter plate 25 μl human factor Xa (Enzyme Research Laboratories, Inc.; South Bend, Ind.) in TBS-PEG; 40 μl 10% (v/v) DMSO in TBS-PEG (uninhibited control) or various concentrations of the compound to be tested diluted in 10% (v/v) DMSO in TBS-PEG; and substrate S-2765 (N-benzyloxycarbonyl-[…]-nitroanilide; Kabi Pharmacia, Inc.; Franklin Ohio) in TBS-PEG. […] The initial velocity of chromogenic substrate hydrolysis is measured by the change in absorbance at 405 nm using a Bio-tek Instruments kinetic plate reader ([…] 25° C. during the linear portion of the time course (usually 1.5 min after addition of substrate).

[5] = test system: thrombin and factor Xa; details: rate of inactivation thrombin vs factor Xa; cited from earlier work
[6] = subcutaneous; cited from earlier work

T1 sequence (P00742 235-488 limits assumed): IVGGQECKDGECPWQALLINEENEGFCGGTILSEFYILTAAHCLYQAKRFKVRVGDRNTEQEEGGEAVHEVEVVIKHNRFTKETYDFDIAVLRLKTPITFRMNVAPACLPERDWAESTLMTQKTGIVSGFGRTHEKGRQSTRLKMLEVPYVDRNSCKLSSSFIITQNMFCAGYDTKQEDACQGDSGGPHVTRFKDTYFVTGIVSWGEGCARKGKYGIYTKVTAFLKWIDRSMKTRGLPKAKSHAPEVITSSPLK
T1 sequence (P00742 41-179 partner limits assumed): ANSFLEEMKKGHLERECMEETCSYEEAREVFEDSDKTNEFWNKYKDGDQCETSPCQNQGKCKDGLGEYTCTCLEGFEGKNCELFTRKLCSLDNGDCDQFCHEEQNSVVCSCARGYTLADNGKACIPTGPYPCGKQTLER

tick anticoagulant peptide (YNRLCIKPRDWIDECDSNEGGERAYFRNGKGGCDSFWICPEDHTGADYYSSYRDCFNACI; UniProt P17726 1-60, looked up) [TAP]
Ki [1]: ~0.5 nM
prevention of clotting [2]: prevent clotting
prevention of high-shear arterial thrombosis and reduced flow in graft [3]: effectively prevents

N=C(N)NCCC[C@H](NC(=O)[C@@H](NC(=O)C(Cc1ccc(C(=N)NO)cc1)C(=O)NCc1ccccc1)C1CCCCC1)C(N)=O (stereo partly drawn) [Example 14, N-Benzyl-N′-[(S)-(1-(S)-carbamoyl-4-guanidino-butylcarbamoyl)-cyclohexyl-methyl]-2-[4-(N-hydroxycarbamimidoyl)-benzyl]-malonamide trifluoroacetic acid salt]
Ki [4]: 21.8 nM

C=CCNC(=O)C(Cc1ccc(C(=N)N)cc1)C(=O)N[C@@H](CCCN)C(=O)N[C@@H](CCCNC(=N)N)C(N)=O (stereo partly drawn) [Example 45, N-Allyl-N′-[4-amino-1-(S)-(1-(S)-carbamoyl-4-guanidino-butylcarbamoyl)-butyl]-2-(4-carbamimidoyl-benzyl)-malonamide trifluoroacetic acid salt]
Ki [4]: 26500 nM

CCCC[C@H](NC(=O)C(Cc1ccc(C(=N)N)cc1)C(=O)NC)C(=O)N[C@@H](CCCNC(=N)N)C(N)=O (stereo partly drawn) [Example 28, 2-(4-Carbamimidoyl-benzyl)-N-[1-(S)-(1-(S)-carbamoyl-4-guanidino-butylcarbamoyl)-pentyl]-N′-methyl-malonamide trifluoroacetic acid salt]
Ki [4]: 47 nM

heparin [reference compound]
thrombin inactivated faster than factor Xa [5]: approximately 100 times
prevention of high-shear arterial thrombosis and reduced flow in graft [3]: did not prevent thrombosis

N=C(N)NCCC[C@H](NC(=O)[C@H](CO)NC(=O)C(Cc1ccc(C(=N)N)cc1)C(=O)Nc1ccccc1)C(N)=O (stereo partly drawn) [Example 54, 2-(4-Carbamimidoyl-benzyl)-N-[1-(S)-(1-(S)-carbamoyl-4-guanidino-butylcarbamoyl)-2-hydroxy-ethyl]-N′-phenyl-malonamide trifluoroacetic acid salt]
Ki [4]: 3010 nM

N=C(N)NCCC[C@H](NC(=O)[C@@H](NC(=O)C(Cc1ccc(C(=N)N)cc1)C(=O)NCc1ccccc1)C1CCCCC1)C(N)=O (single isomer, unassigned; more polar) [Example 8]
Ki [4]: 35.1 nM

CCCC[C@H](NC(=O)C(Cc1ccc(C(=N)N)cc1)C(=O)Nc1ccccc1)C(=O)N[C@@H](CCCNC(=N)N)C(N)=O (stereo partly drawn) [Example 30, 2-(4-Carbamimidoyl-benzyl)-N-[1-(S)-(1-(S)-carbamoyl-4-guanidino-butylcarbamoyl)-pentyl]-N′-phenyl-malonamide trifluoroactic acid salt]
Ki [4]: 153 nM

B1: antistasin (protein, UniProt P15358 18-136, looked up)
Antistasin: QGPFGPGCEEAGCPEGSACNIITDRCTCSGVRCRMHCPHGFQRSRYGCEFCKCRLEPMKATCDISECPEGMMCSRLTNKCDCKIDINCRKTCPNGLKRDKLGCEYCECRPKRKLIPRLS
Ki [1]: 0.05 nM
prevention of clotting [2]: prevent clotting
treatment effect in DIC model [6]: effective treatment
